Laboratory results: ChEMBL document CHEMBL1817595, “Design, synthesis, biological evaluation and X-ray crystal structure of novel classical 6,5,6-tricyclic benzo[4,5]thieno[2,3-d]pyrimidines as dual thymidylate synthase and dihydrofolate reductase inhibitors” (Bioorg Med Chem, 2011)

Key:
[1] = target: T1, Bifunctional dihydrofolate reductase-thymidylate synthase (Toxoplasma gondii, UniProt Q07422); assay: Inhibition of Toxoplasma gondii DHFR by spectrophotometry
T1 sequence (Q07422 whole entry): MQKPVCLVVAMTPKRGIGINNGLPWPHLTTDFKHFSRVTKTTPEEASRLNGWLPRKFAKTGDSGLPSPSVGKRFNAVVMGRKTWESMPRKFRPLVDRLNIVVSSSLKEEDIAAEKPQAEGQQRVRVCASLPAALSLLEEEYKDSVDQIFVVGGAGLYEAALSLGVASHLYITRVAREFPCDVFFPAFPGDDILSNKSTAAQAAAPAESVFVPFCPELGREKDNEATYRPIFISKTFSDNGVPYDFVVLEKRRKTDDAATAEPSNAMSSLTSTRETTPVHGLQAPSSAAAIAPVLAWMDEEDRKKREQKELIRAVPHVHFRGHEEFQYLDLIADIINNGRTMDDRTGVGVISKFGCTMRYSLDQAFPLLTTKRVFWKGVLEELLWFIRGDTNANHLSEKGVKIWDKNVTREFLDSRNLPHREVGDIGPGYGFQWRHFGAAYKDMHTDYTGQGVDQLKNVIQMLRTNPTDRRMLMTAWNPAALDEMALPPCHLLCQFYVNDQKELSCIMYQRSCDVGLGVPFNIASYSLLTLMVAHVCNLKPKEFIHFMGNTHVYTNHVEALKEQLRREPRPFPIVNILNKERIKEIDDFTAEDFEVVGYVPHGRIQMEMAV

Dihydrofolate reductase [2] = target: T2, Dihydrofolate reductase (Escherichia coli, UniProt P0ABQ4); assay: Inhibition of Escherichia coli DHFR by spectrophotometry
T2 sequence (P0ABQ4 whole entry): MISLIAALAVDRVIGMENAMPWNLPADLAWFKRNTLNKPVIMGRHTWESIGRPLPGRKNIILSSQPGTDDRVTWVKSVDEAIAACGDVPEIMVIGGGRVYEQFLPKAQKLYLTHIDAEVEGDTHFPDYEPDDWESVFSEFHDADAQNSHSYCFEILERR

Dihydrofolate reductase [3] = target: T3, Dihydrofolate reductase (Homo sapiens, UniProt P00374); assay: Inhibition of human DHFR by spectrophotometry
T3 sequence (P00374 whole entry): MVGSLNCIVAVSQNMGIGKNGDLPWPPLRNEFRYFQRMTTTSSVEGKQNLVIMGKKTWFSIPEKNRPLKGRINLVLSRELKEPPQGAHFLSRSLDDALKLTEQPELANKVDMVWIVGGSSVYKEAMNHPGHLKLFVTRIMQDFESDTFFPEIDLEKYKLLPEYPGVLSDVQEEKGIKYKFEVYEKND

Thymidylate synthase [4] = target: T4, Thymidylate synthase (Homo sapiens, UniProt P04818); assay: Inhibition of human TS assessed as oxidation of tetrahydrofolate to dihydrofolate after 2 to 12 mins by spectrophotometry
Target sequence in this assay (P04818 whole entry): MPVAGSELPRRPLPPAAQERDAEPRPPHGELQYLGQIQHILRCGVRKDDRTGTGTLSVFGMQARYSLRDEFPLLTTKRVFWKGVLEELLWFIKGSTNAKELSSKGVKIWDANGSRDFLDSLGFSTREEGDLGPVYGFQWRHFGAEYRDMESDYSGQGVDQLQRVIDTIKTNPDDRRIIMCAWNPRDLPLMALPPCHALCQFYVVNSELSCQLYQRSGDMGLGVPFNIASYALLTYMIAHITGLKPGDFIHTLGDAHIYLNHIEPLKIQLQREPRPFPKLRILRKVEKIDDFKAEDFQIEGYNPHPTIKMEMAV

[5] = target: T5, Thymidylate synthase (EC 2.1.1.45) (TS) (TSase) (Escherichia coli, UniProt E2QDN0); assay: Inhibition of Escherichia coli TS assessed as oxidation of tetrahydrofolate to dihydrofolate after 2 to 12 mins by spectrophotometry
T5 sequence (E2QDN0 whole entry): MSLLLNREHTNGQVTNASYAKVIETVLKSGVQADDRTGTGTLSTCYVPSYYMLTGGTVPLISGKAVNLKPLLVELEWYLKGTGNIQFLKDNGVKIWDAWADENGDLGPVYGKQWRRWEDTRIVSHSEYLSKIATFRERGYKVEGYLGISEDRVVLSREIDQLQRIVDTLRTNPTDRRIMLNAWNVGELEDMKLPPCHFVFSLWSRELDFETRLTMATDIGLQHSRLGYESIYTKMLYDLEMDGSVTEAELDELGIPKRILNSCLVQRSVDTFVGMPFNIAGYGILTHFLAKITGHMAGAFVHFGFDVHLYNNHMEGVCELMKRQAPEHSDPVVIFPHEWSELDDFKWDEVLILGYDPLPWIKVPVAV

Thymidylate synthase [6] = target: T4, Thymidylate synthase; assay: Ratio of premetrexed IC50 to compound IC50 for human TS
Target sequence in this assay (P04818 2-313 limits assumed): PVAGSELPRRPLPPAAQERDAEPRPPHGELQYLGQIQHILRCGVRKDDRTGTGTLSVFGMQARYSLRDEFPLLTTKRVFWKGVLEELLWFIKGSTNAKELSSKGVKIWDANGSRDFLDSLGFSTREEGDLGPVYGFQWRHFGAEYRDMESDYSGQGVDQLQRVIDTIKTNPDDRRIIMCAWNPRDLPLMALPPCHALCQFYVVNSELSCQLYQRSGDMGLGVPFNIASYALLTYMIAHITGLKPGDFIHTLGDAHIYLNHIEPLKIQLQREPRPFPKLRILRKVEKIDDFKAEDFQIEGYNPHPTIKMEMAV

[7] = target: T1, Bifunctional dihydrofolate reductase-thymidylate synthase; assay: Inhibition of Toxoplasma gondii TS assessed as oxidation of tetrahydrofolate to dihydrofolate after 2 to 12 mins by spectrophotometry

Structure (SMILES): Nc1nc2sc3cccc(CNc4ccc(C(=O)N[C@@H](CCC(=O)O)C(=O)O)cc4)c3c2c(=O)[nH]1
- IC50 [1]: 0.02 µM
- IC50 (Dihydrofolate reductase [2]): 0.4 µM
- IC50 (Dihydrofolate reductase [3]): 0.09 µM
- IC50 (Thymidylate synthase [4]): 0.068 µM
- IC50 [5]: 0.017 µM
- Ratio IC50 (Thymidylate synthase [6]): 50
- IC50 [7]: 0.14 µM

Structure (SMILES): Cc1nc2sc3cccc(CNc4ccc5c(c4)CN([C@@H](CCC(=O)O)C(=O)O)C5=O)c3c2c(=O)[nH]1
- IC50 [1]: 1.8 µM
- IC50 (Dihydrofolate reductase [2]): > 20 µM
- IC50 (Dihydrofolate reductase [3]): > 20 µM
- IC50 (Thymidylate synthase [4]): 0.8 µM
- IC50 [5]: 0.85 µM
- Ratio IC50 (Thymidylate synthase [6]): 50
- IC50 [7]: 3.7 µM

Structure (SMILES): Cc1nc2sc3cccc(CNc4ccc(C(=O)N[C@@H](CCC(=O)O)C(=O)O)cc4)c3c2c(=O)[nH]1
- IC50 [1]: 1.4 µM
- IC50 (Dihydrofolate reductase [2]): 15 µM
- IC50 (Dihydrofolate reductase [3]): > 20 µM
- IC50 (Thymidylate synthase [4]): 0.26 µM
- IC50 [5]: 0.82 µM
- Ratio IC50 (Thymidylate synthase [6]): 50
- IC50 [7]: 1.7 µM

Structure (SMILES): Cc1nc2ccc3ccc(CNc4ccc5c(c4)CN([C@@H](CCC(=O)O)C(=O)O)C5=O)cc3c2c(=O)[nH]1 [OSI-7904]
- IC50 [1]: 0.71 µM
- IC50 (Dihydrofolate reductase [2]): 20 µM
- IC50 (Dihydrofolate reductase [3]): > 20 µM
- IC50 [5]: 0.023 µM
- IC50 [7]: 0.027 µM

Structure (SMILES): Nc1nc2[nH]cc(CCc3ccc(C(=O)N[C@@H](CCC(=O)O)C(=O)O)cc3)c2c(=O)[nH]1 [PEMETREXED]
- IC50 [5]: 76 µM

Structure (SMILES): Nc1nc2sc3cccc(CNc4ccc5c(c4)CN([C@@H](CCC(=O)O)C(=O)O)C5=O)c3c2c(=O)[nH]1
- IC50 [1]: 0.01 µM
- IC50 (Dihydrofolate reductase [2]): 0.4 µM
- IC50 (Dihydrofolate reductase [3]): 0.1 µM
- IC50 (Thymidylate synthase [4]): 0.034 µM
- IC50 [5]: 0.05 µM
- Ratio IC50 (Thymidylate synthase [6]): 50
- IC50 [7]: 0.17 µM

Structure (SMILES): Cc1[nH]c2nc(N)[nH]c(=O)c2c1Sc1ccc(C(=O)N[C@@H](CCC(=O)O)C(=O)O)cc1
- IC50 [1]: 0.23 µM
- IC50 (Dihydrofolate reductase [2]): 22 µM
- IC50 [7]: 0.09 µM
